“Also recorded” adds a separate entry of the source.
What was measured:
Assay type in all cases: cell-based, human
[1] = system: PC3; assay: Pan-caspase detection (FAM-VAD-FMK, confocal); conditions: PC3, 24 h DEFB1 induction
Protocol: Detection of caspase activity in the prostate cancer cell lines was performed using APO LOGIX™ Carboxyfluorescin Caspase detection kit (Cell Technology, Mountain View, Calif.). Active caspases were detected through the use of a FAM-VAD-FMK inhibitor that irreversibly binds to active caspases. Briefly, DU 145 and PC3 cells (1.5-3×10^5) containing the DEFB1 expression system were plated in 35 mm glass bottom microwell dishes (Matek, Ashland, Mass.) and treated for 24 hours with media only or with media containing PonA as previously described. Next, 10 μl of a 30× working dilution of carboxyfluorescein labeled peptide fluoromethyl ketone (FAM-VAD-FMK) was added to 300 μl of media and added to each 35 mm dish. Cells were then incubated for 1 hour at 37° C. under 5% CO2. […] The fluorescent signal was analyzed using a confocal microscope (Zeiss LSM 5 Pascal) and a 63×DIC oil lens with a Vario 2 RGB Laser Scanning Module.
Pan-Caspase Detection: Detection of caspase activity in the prostate cancer cell lines was performed using APO LOGIX™ Carboxyfluorescin Caspase detection kit (Cell Technology, Mountain View, Calif.). Active caspases were detected through the use of a FAM-VAD-FMK inhibitor that irreversibly binds to active caspases. […] The fluorescent signal was analyzed using a confocal microscope (Zeiss LSM 5 Pascal) and a 63×DIC oil lens with a Vario 2 RGB Laser Scanning Module. […]

[2] = system: PC3; assay: Phase contrast microscopy of cell growth; conditions: PC3, 48 h DEFB1 induction
Protocol: (§1) Microscopic Analysis: Cell morphology was analyzed by phase contrast microscopy. DU145, PC3 and LNCaP cells containing no vector, empty plasmid or DEFB1 plasmid were seeded onto 6 well culture plates (BD Falcon, USA). The following day plasmid-containing cells were induced for a period of 48 h with media containing 10 μM Ponasterone A, while control cells received fresh media. The cells were then viewed under an inverted Zeiss IM 35 microscope (Carl Zeiss, Germany). Phase contrast pictures of a field of cells were obtained using the SPOT Insight Mosaic 4.2 camera (Diagnostic Instruments, USA). Cells were examined by phase contrast microscopy under 32× magnification and digital images were stored as uncompressed TIFF files and exported into Photoshop CS software (Adobe Systems, San Jose, Calif.) for image processing and hard copy presentation.
(§2) Phase Contrast Microscopy: The effect of PAX2 knock-down on cell growth was analyzed by phase contrast microscopy. Here, 1-2×10^4 cells were seeded onto 6 well culture plates (BD Falcon, USA). The following day cells were treated with media only, negative control non-specific siRNA or PAX2 siRNA and allowed to incubate for six days. The cells were then viewed under an inverted Zeiss IM 35 microscope (Carl Zeiss, Germany) at 32× magnification. Phase contrast pictures of a field of cells were obtained using the SPOT Insight Mosaic 4.2 camera (Diagnostic Instruments, USA).
(§3) Phase contrast microscopy: The effect of PAX2 knockdown on cell number was analyzed by phase contrast microscopy. Here, 1-2×10^4 cells were seeded overnight onto six-well culture plates (BD Falcon, USA). Next the cells were treated with media only, negative control non-specific siRNA or PAX2 siRNA and allowed to incubate for 6 days. The cells were then viewed under an inverted Zeiss IM 35 microscope (Carl Zeiss, Germany). Phase contrast pictures of a field of cells were obtained using the SPOT Insight Mosaic 4.2 camera (Diagnostic Instruments, USA).

[3] = system: DU145; assay: Phase contrast microscopy of cell growth; conditions: DU145, 48 h DEFB1 induction
Protocol: as §1, §2, §3

[4] = system: LNCaP; assay: Phase contrast microscopy of cell growth; conditions: 48 h DEFB1 induction
Protocol: as §1, §2, §3

For “DEFB1: human beta defensin-1 expressed from the ecdysone inducible pIND/DEFB1 construct, induced with Ponasterone A (DHYNCVSSGGQCLYSACPIFTKIQGTCYRGKAKCCK; UniProt P60022 33-68, looked up)”, the caspase activity [1] was “revealed caspase activity; also recorded: green staining”, the cell number [2] was “significant reduction in cell number” and the cell number [3] was “significant reduction in cell number”. For the same substance, the cell proliferation [4] was “no effect on cell proliferation”.

From patent US8445444B2, “Compositions and methods for diagnosing, treating, and preventing prostate conditions” (Phigenix, Inc., priority 2007, dated 2013)
